Reference: PubChem BioAssay (NCI)
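A five-concentration, 48-hour dose response in 96-well plates underlies each endpoint, interpolated linearly between surrounding concentrations. GI50 is the concentration that inhibits growth by half. TGI: concentration producing complete growth inhibition.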 Where a SMILES comes first, the peptide text is derived from it. [ ]: non-standard residue; d: D form. The star is where a group is joined. Phe(4-NO2) = N[CH](Cc1ccc([N+](=O)[O-])cc1)C(=O)O; Boc = CC(C)(C)OC(=O)*

Assays:
Experiment in all cases: DTP human tumour cell line panel, 48 h
MDA-MB-435 = tested on: MDA-MB-435
OVCAR-3 ovarian = tested on: OVCAR-3 ovarian
CAKI-1 renal = tested on: CAKI-1 renal
SN12C renal = tested on: SN12C renal
M14 melanoma = tested on: M14 melanoma
U251 CNS = tested on: U251 CNS
SNB-75 CNS = tested on: SNB-75 CNS
OVCAR-5 ovarian = tested on: OVCAR-5 ovarian
SR leukemia = tested on: SR leukemia
MALME-3M melanoma = tested on: MALME-3M melanoma

Row | SMILES | TGI (MDA-MB-435) [µM] | TGI (OVCAR-3 ovarian) [µM] | TGI (CAKI-1 renal) [µM] | TGI (SN12C renal) [µM] | TGI (M14 melanoma) [µM] | TGI (U251 CNS) [µM] | TGI (SNB-75 CNS) [µM] | TGI (OVCAR-5 ovarian) [µM] | TGI (SR leukemia) [µM] | TGI (MALME-3M melanoma) [µM] | GI50 (MDA-MB-435) [µM] | GI50 (OVCAR-3 ovarian) [µM] | GI50 (CAKI-1 renal) [µM] | GI50 (SN12C renal) [µM] | GI50 (U251 CNS) [µM] | GI50 (SNB-75 CNS) [µM] | GI50 (OVCAR-5 ovarian) [µM] | GI50 (SR leukemia) [µM] | GI50 (MALME-3M melanoma) [µM] | GI50 (M14 melanoma) [µM]
1 | C/C(=C\Cc1ccc(F)cc1)CCCCCC/C(C)=C/Cc1ccc(F)cc1 | 39 | 53.8 | 25.5 | 31.5 | 45.6 | 37.8 | 35 | 37.9 | 57.2 | – | – | – | – | – | – | – | – | – | – | –
2 | Cc1ccc(-n2nncc2[Si](C)(C)C)s1 | > 100 | > 100 | > 100 | > 100 | > 100 | > 100 | – | > 100 | – | > 100 | – | – | – | – | – | – | – | – | – | –
3 | CCC1=C(C[C@H]2NCCc3cc(OC)c(OC)cc32)C[C@H]2c3cc(OC)c(OC)cc3CCN2C1 | – | 0.158 | 0.199 | 0.193 | 0.069 | 0.188 | 0.107 | 0.49 | 55.1 | 0.637 | – | – | – | – | – | – | – | – | – | –
4 | COc1cc2nc(N3CCC[C@H](NC4=CC(=O)c5ccccc5C4=O)C3)nc(N)c2cc1OC | 4.03 | 3.43 | 3.91 | 3.51 | – | 3.18 | 3.3 | 4 | 2.94 | – | 2.05 | 1.89 | 1.89 | 1.73 | 1.65 | 1.64 | 2.05 | 0.28 | – | –
5 | Cc1ccc(N2C(=O)C3CSCN3C2=O)cc1 (stereo not given) | – | > 100 | > 100 | > 100 | – | > 100 | > 100 | > 100 | – | > 100 | – | – | – | – | – | – | – | – | > 100 | –
6 | CN(C)C=N[C@@H](C(=O)O)c1ccccc1 | > 100 | > 100 | – | > 100 | > 100 | > 100 | > 100 | > 100 | > 100 | > 100 | – | – | – | – | – | – | – | – | – | –
7 | CC(=O)CC(=O)N1CCSC1=S | > 10 | > 10 | – | > 10 | > 10 | > 10 | > 10 | > 10 | > 10 | > 10 | – | – | – | – | – | – | – | – | – | –
8 | CC(C)[C@H](C)/C=C/[C@@H](C)C1CC[C@H]2[C@@]34C=C[C@]5(C[C@@H](O)CC[C@]5(C)[C@H]3CC[C@]12C)OO4 (stereo not given in full) | 91.6 | > 100 | 55.3 | 79.7 | > 100 | 58.5 | > 100 | > 100 | – | – | – | – | – | – | – | – | – | – | – | –
9 | COC(=O)c1onc(C2OC(C)(C)OC2C(O)COC(c2ccccc2)(c2ccccc2)c2ccccc2)c1C(=O)OC (stereo not given) | > 100 | > 100 | – | > 100 | > 100 | > 100 | – | > 100 | > 100 | > 100 | – | – | – | – | – | – | – | – | – | –
10 | Cc1cc(S(=O)(=O)Nc2nc3cscc3c(=O)n2N)c(S)cc1Cl | > 100 | > 100 | > 100 | > 100 | > 100 | > 100 | 58.5 | 64 | – | 90.4 | – | – | – | – | – | – | – | – | – | –
11 | COc1c(C)c(C/C=C(\C)CCCC(C)CCCC(C)CCCC(C)C)c(OC)c2ccccc12 (stereo not given) | > 100 | > 100 | > 100 | > 100 | > 100 | > 100 | > 100 | > 100 | > 100 | – | – | – | – | – | – | – | – | – | – | –
12 | CC(C)(C)OC(=O)C(C#N)C(=O)c1ccc(C(=O)O)[nH]1 (stereo not given) | > 100 | > 100 | 41.5 | > 100 | > 100 | > 100 | > 100 | > 100 | – | > 100 | – | – | – | – | – | – | – | – | – | –
13 | c1ccc2c[n+](CCCC[n+]3ccc4ccccc4c3)ccc2c1 | > 100 | > 100 | > 100 | > 100 | > 100 | > 100 | > 100 | > 100 | > 100 | – | – | – | – | – | – | – | – | – | – | –
14 | CCOC(=O)CCC(NC(=O)C(Cc1ccc([N+](=O)[O-])cc1)NC(=O)OC(C)(C)C)C(=O)NC(CCC(=O)OCC)C(=O)OCC (stereo not given) (Boc-[Phe(4-NO2)]-Glu(OEt)-Glu(OEt)-OEt; configuration not given here) | – | – | – | 49.7 | 35.9 | 44.6 | 31.5 | 46.3 | 9.38 | 35 | – | – | – | – | – | – | – | – | – | –
15 | Oc1ccc(Cl)cc1-c1cc(-c2ccccc2)nc(=S)[nH]1 | > 100 | > 100 | > 100 | > 100 | > 100 | 39.8 | 59.2 | > 100 | – | > 100 | – | – | – | – | – | – | – | – | – | –
16 | O=C(O)Cn1c2c(c3c1-c1ccccc1C3=O)C(=O)CCC2 | > 100 | > 100 | > 100 | > 100 | > 100 | > 100 | > 100 | > 100 | – | > 100 | > 100 | > 100 | > 100 | > 100 | > 100 | > 100 | > 100 | – | > 100 | > 100
17 | Cc1c(OCc2cccc3ccccc23)ccc2c(=O)cc(SCCN3CCOCC3)oc12 | > 100 | > 100 | > 100 | > 100 | > 100 | > 100 | > 100 | > 100 | > 100 | – | – | – | – | – | – | – | – | – | – | –

Row | SMILES | TGI (MDA-MB-435) [µM] | TGI (OVCAR-3 ovarian) [µM] | TGI (CAKI-1 renal) [µM] | TGI (SN12C renal) [µM] | TGI (M14 melanoma) [µM] | TGI (U251 CNS) [µM] | TGI (SNB-75 CNS) [µM] | TGI (OVCAR-5 ovarian) [µM] | TGI (SR leukemia) [µM] | TGI (MALME-3M melanoma) [µM] | GI50 (MDA-MB-435) [µM] | GI50 (OVCAR-3 ovarian) [µM] | GI50 (CAKI-1 renal) [µM] | GI50 (SN12C renal) [µM] | GI50 (U251 CNS) [µM] | GI50 (SNB-75 CNS) [µM] | GI50 (OVCAR-5 ovarian) [µM] | GI50 (SR leukemia) [µM] | GI50 (MALME-3M melanoma) [µM] | GI50 (M14 melanoma) [µM]
18 | COc1ccc(OC)c2c(C)ccnc12 | > 100 | 26 | > 100 | > 100 | 34.3 | > 100 | > 100 | > 100 | – | > 74.3 | – | – | – | – | – | – | – | – | – | –
19 | O=C1C=CC2(O[C@H](C3CCCCC3)[C@@H](C3CCCCC3)O2)C(SC(=O)c2ccccc2)C1 (stereo not given in full) | 5.29 | 2.04 | – | 6.58 | 7.9 | 6.86 | 14.4 | 6.32 | 2.36 | 10.5 | – | – | – | – | – | – | – | – | – | –
20 | O=c1[nH]nc(-c2ccccc2)c2[nH]c3c(c12)Cc1ccccc1-3 | 37.3 | > 49 | > 100 | > 100 | > 100 | > 100 | > 43.3 | > 100 | – | > 41.6 | – | – | – | – | – | – | – | – | – | –
21 | CCOC(=O)c1cc2c3c(c(C(C)=O)c(OC)c2[nH]1)N(C(=O)CC)CC3 | 50.3 | 34.4 | 35.9 | 42.9 | 50.5 | 47.6 | 57.1 | 89.5 | – | 35.8 | – | – | – | – | – | – | – | – | – | –
22 | O=C1c2ccncc2C(=O)c2c(O)ccc(O)c21 | – | 5.81 | – | 16.1 | 19.5 | 30.3 | 49.1 | 29.9 | 52.3 | 5.44 | – | – | – | – | – | – | – | – | – | –
23 | C=CC(C)(C)/C=C/c1ccc(O)cc1 | > 100 | > 100 | > 100 | > 100 | > 100 | > 100 | – | > 100 | – | > 100 | – | – | – | – | – | – | – | – | – | –
24 | COc1cccc2c1OC1c3ccccc3OCC1(O)C2 (stereo not given) | > 100 | > 100 | > 100 | > 100 | > 100 | > 100 | > 100 | > 100 | – | > 100 | – | – | – | – | – | – | – | – | – | –
25 | Oc1c(Cl)cc2cc1-c1cc(cc(Cl)c1O)CCc1c(cc(Cl)c(O)c1Cl)-c1cc(Cl)c(c(Cl)c1O)/C=C\2 | 21.7 | 14.4 | – | – | 15.6 | 45.6 | 17.6 | 19.5 | > 50 | – | – | – | – | – | – | – | – | – | – | –
26 | O=C1C(N2CCN(CCOCCO)CC2)=C(Cl)C(=O)c2ncccc21 | – | 32.7 | 31.8 | 35.3 | 39.2 | 35.9 | > 100 | 57.1 | – | 33.8 | 18.5 | – | – | – | – | – | – | – | 19.3 | –
27 | CCOc1ccc2nc3nc(=O)[nH]c(C)c3c(NC(C)(CO)CO)c2c1 | > 100 | > 100 | > 100 | > 100 | > 100 | > 100 | > 100 | > 100 | – | > 100 | – | – | – | – | – | – | – | – | – | –
28 | O=Nc1c(-c2c(O)[nH]c3ccc(I)cc23)[nH]c2ccccc12 | > 100 | > 57.3 | > 100 | 17.9 | > 100 | > 40.9 | 20.7 | > 27.1 | – | > 32.7 | – | – | – | – | – | – | – | – | – | –
29 | c1cc2cc3c4c5c(cc6ccc7cc8cc9c%10c8c8c7c6c5c8c5c%10c(c1C9N1CCOCCOCCOCCOCCOCC1)c2c45)C3 (stereo not given) | > 100 | > 100 | – | > 100 | > 100 | > 100 | > 100 | > 100 | > 100 | > 100 | – | – | – | – | – | – | – | – | – | –
30 | Cc1cc2c(=O)c3ccc(Cl)cc3[nH]c2c(C(N)=O)c1C | – | > 100 | – | > 100 | > 100 | > 100 | > 100 | > 100 | – | > 100 | – | – | – | – | – | – | – | – | – | –
31 | Cc1nc(C)c(N2CCN(CN)CC2)c(=O)[nH]1 | > 100 | > 100 | > 100 | > 100 | > 100 | > 100 | – | – | > 100 | > 100 | – | – | – | – | – | – | – | – | – | –
32 | Cn1c2ccccc2n2c3ncccc3c(=O)cc12 | > 100 | > 100 | > 100 | > 100 | > 100 | > 100 | > 100 | > 100 | – | > 100 | – | – | – | – | – | – | – | – | – | –
33 | Cc1cc(=O)[nH]c(NNC(C#N)c2ccccc2O)n1 (stereo not given) | – | > 100 | 93.6 | > 100 | – | > 100 | > 100 | > 100 | > 100 | > 100 | – | – | – | – | – | – | – | – | – | –
